Assay results taken from the NIST ThermoML archive (doi:10.1016/j.jct.2019.05.009).

Assay: molar heat capacity at constant pressure
Conditions: 101.33 kPa, Crystal, relaxation calorimetry

[Al] [aluminum]
Conditions	molar heat capacity at constant pressure [J/K/mol]
1.863 K	0.002602
1.936 K	0.002749
2.01 K	0.002882
2.089 K	0.002997
2.173 K	0.003177
2.264 K	0.003323
2.36 K	0.003531
2.459 K	0.003773
2.562 K	0.003901
2.677 K	0.00413
2.795 K	0.004373
2.915 K	0.004596
3.042 K	0.004765
3.177 K	0.005056
3.318 K	0.005413
3.464 K	0.005679
3.615 K	0.005941
3.776 K	0.006361
3.943 K	0.00681
4.119 K	0.007189
4.301 K	0.007838
4.492 K	0.008275
4.687 K	0.008914
4.896 K	0.009549
5.111 K	0.01026
5.34 K	0.01095
5.574 K	0.01158
5.822 K	0.01268
6.08 K	0.01359
6.349 K	0.01458
6.636 K	0.01573
6.925 K	0.01714
7.23 K	0.01866
7.547 K	0.02044
7.883 K	0.02258
8.234 K	0.02467
8.595 K	0.02641
8.981 K	0.02942
9.378 K	0.03231
9.795 K	0.03497
10.24 K	0.03897
10.71 K	0.04317
11.19 K	0.04767
11.69 K	0.05284
12.21 K	0.05868
12.75 K	0.06538
13.31 K	0.07304
13.9 K	0.08149
14.52 K	0.09112
15.16 K	0.1021
15.66 K	0.1115
17.12 K	0.1425
18.7 K	0.1842
20.44 K	0.24
22.34 K	0.317
24.42 K	0.423
26.67 K	0.5669
29.14 K	0.7607
31.85 K	1.02
34.81 K	1.356
38.05 K	1.784
41.58 K	2.319
45.44 K	2.967
49.66 K	3.728
54.27 K	4.615
59.31 K	5.613
64.81 K	6.718
70.81 K	7.909
77.38 K	9.17
84.53 K	10.51
92.37 K	11.83
100.93 K	13.12
111.01 K	14.49
121.1 K	15.74
131.22 K	16.79
141.3 K	17.72
151.36 K	18.54
161.49 K	19.25
171.61 K	19.88
181.69 K	20.47
191.79 K	21.01
201.89 K	21.48
211.98 K	21.89
222.08 K	22.24
232.18 K	22.58
242.28 K	22.91
252.36 K	23.16
262.46 K	23.41
272.56 K	23.64
282.64 K	23.88
292.73 K	24.08
302.81 K	24.25

O=C(O)c1ccccc1 [benzoic acid]
Conditions	molar heat capacity at constant pressure [J/K/mol]
1.855 K	0.01205
1.92 K	0.01371
1.999 K	0.01544
2.082 K	0.0168
2.168 K	0.01932
2.26 K	0.02218
2.357 K	0.02464
2.464 K	0.0282
2.568 K	0.03421
2.679 K	0.03716
2.796 K	0.04141
2.918 K	0.04667
3.044 K	0.04829
3.179 K	0.0605
3.32 K	0.07095
3.465 K	0.07898
3.617 K	0.08814
3.776 K	0.103
3.942 K	0.1157
4.118 K	0.1296
4.303 K	0.1534
4.491 K	0.172
4.686 K	0.1966
4.893 K	0.2248
5.109 K	0.2491
5.336 K	0.3026
5.572 K	0.3324
5.823 K	0.382
6.077 K	0.452
6.345 K	0.5096
6.625 K	0.5803
6.92 K	0.6878
7.225 K	0.7916
7.545 K	0.8991
7.878 K	1.031
8.227 K	1.197
8.596 K	1.338
8.976 K	1.541
9.373 K	1.763
9.789 K	1.997
10.24 K	2.278
10.71 K	2.579
11.18 K	2.902
11.68 K	3.262
12.2 K	3.647
12.74 K	4.074
13.3 K	4.535
13.89 K	5.046
14.5 K	5.598
15.14 K	6.188
15.64 K	6.658
17.1 K	8.085
18.69 K	9.716
20.41 K	11.56
22.32 K	13.61
24.4 K	15.91
26.66 K	18.4
29.13 K	20.97
31.84 K	23.77
34.8 K	26.64
38.03 K	29.6
41.56 K	32.79
45.42 K	35.88
49.63 K	39.11
54.24 K	42.18
59.28 K	45.06
64.78 K	47.92
70.79 K	50.65
77.36 K	53.75
84.51 K	57.18
92.38 K	61.03
100.95 K	64.26
110.98 K	67.64
121.09 K	71.22
131.21 K	75.19
141.28 K	78.86
151.34 K	82.29
161.49 K	85.76
171.59 K	90.18
181.67 K	95.02
191.74 K	98.7
201.82 K	102.27
211.92 K	106.37
222 K	112.07
232.09 K	117.31
242.17 K	119.6
252.25 K	124.22
262.35 K	128.72
272.46 K	133
282.54 K	137.8
292.59 K	141.72
302.66 K	146.37
